Data published in ChEMBL document CHEMBL1143209, “Ohioensins F and G: protein tyrosine phosphatase 1B inhibitory benzonaphthoxanthenones from the Antarctic moss Polytrichastrum alpinum” (Bioorg Med Chem Lett, 2008).

Experiments:
[1] = target: T1, Tyrosine-protein phosphatase non-receptor type 1 (Homo sapiens, UniProt P18031); assay: Inhibition of human recombinant PTP1B
T1 sequence (P18031 whole entry): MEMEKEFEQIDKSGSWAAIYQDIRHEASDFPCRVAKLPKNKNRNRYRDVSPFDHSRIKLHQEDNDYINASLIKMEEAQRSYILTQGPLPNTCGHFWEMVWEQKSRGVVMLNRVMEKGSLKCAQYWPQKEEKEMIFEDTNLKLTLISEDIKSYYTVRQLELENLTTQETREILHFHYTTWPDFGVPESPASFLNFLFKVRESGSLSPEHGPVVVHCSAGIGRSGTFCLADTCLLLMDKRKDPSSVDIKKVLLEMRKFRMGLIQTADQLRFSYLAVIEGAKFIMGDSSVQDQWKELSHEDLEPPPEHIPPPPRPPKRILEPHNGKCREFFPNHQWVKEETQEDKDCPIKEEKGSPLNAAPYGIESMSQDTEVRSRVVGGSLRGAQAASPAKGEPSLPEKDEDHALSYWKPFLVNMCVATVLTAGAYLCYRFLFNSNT

[2] = target: T1, Tyrosine-protein phosphatase non-receptor type 1; assay: Inhibition of human recombinant PTP1B by Lineweaver-Burke plot

Row | SMILES | IC50 [1] [µM] | Ki [2] [µM]
1 | O=C1C[C@@H]2c3ccccc3O[C@H]3c4cc(O)ccc4-c4c(O)cc(O)c1c4[C@H]23 [OHIOENSIN A] | 4.3 | 
2 | O=C1c2c(O)cc(O)c3c2[C@@H]2[C@@H](c4ccccc4O[C@H]2c2cccc(O)c2-3)[C@H]1O [OHIOENSIN G] | 5.6 | 
3 | COc1cc(O)c2c3c1-c1c(O)cccc1[C@@H]1Oc4ccccc4[C@@H](CC2=O)[C@@H]31 [OHIOENSIN C] | 7.6 | 
4 | O=C1C[C@]2(O)c3ccccc3O[C@H]3c4cc(O)ccc4-c4c(O)cc(O)c1c4[C@@H]32 [OHIOENSIN F] | 3.5 | 1.5
